According to paper PMC6433934, “Preclinical Evaluation of Bispecific Adaptor Molecule Controlled Folate Receptor CAR-T Cell Therapy With Special Focus on Pediatric Malignancies” (Frontiers in Oncology, 2019):

Tested on: HOS-FRα tumor-bearing mice
Test: Toxicity and CRS rescue with sodium fluorescein
Format: in vivo
Conditions: sodium fluorescein i.v. ~95 mg/kg, severe CRS, 35 million total CAR-T cells (93:7 CD4/CD8), plasma 6 h later
Description: Depending on the CAR-T cell dose and how EC17 is administered, tumor-bearing mice receiving FITC-specific CAR-T cells can experience severe CRS and varying degrees of body weight loss ([27], [33], [34]). Therefore, we developed a CRS grading system (0–5 scale) to empirically assess CRS toxicity from animals' gross morphology and social behavior to allow for better timing of CRS rescue. While grades 0 and 5 indicated normal (no CRS) or death (due to severe CRS), respectively, grades 1, 2, and 3–4 were considered mild, light-to-moderate, and severe CRS. In addition, all EC17 doses were intentionally given toward the end of any given day to allow potential CRS symptoms to develop overnight. On the days immediately following each EC17 dose, animals were scored and rescue agents such as sodium fluorescein, folic acid and leucovorin were used to mitigate CRS toxicity ([33]). In this particular instance, a batch of E2-CAR-T cells with a high EGFRt+ CD4/CD8 ratio (~93:7) was given to HOS-FRα tumor-bearing mice at a mixture of ~2.5 million CD8 and ~33 million CD4 on day 0. When EC17 was dosed, respectively, at 500, 100, and 500 nmol/kg on days 3, 10, and 12, low CRS (grades 1–2) was noted on days 4 and 11 but high CRS (grade 3) was noted on day 13. To mitigate the severe CRS toxicity, sodium fluorescein was intravenously administrated at ~96 mg/kg in the morning of day 13 and mouse plasma samples were collected 6 h later for analysis of CRS-associated cytokines.

Structure (SMILES): O=C([O-])c1ccccc1-c1c2ccc(=O)cc-2oc2cc([O-])ccc12.[Na+].[Na+] [sodium fluorescein, reference compound]
- CAR-T cell derived human cytokines after CRS rescue: acted very quickly to reduce CAR-T cell derived human cytokines
